In US20260234131A1, “THERAPEUTIC ALKALOID COMPOUNDS” (Sensorium Therapeutics, Inc., priority 2023, published 2026):

Tests used:
SERT = target: T1, SERT (Homo sapiens, UniProt P31645); assay: SERT inhibition assay (Neurotransmitter Transportation Fluorescence assay, stable 5HTT cells); format: cell-based; details: for IC50 ratio to (−) mesembrine: SERT assay IC50 relative to (−) mesembrine; for IC50: stable 5HTT cells, 30 minutes at 37° C., fluorescence uptake kit, read-out: SERT Assay Potency Range
T1 construct: expressed in transfected cells
T1 sequence (P31645 whole entry, species assumed): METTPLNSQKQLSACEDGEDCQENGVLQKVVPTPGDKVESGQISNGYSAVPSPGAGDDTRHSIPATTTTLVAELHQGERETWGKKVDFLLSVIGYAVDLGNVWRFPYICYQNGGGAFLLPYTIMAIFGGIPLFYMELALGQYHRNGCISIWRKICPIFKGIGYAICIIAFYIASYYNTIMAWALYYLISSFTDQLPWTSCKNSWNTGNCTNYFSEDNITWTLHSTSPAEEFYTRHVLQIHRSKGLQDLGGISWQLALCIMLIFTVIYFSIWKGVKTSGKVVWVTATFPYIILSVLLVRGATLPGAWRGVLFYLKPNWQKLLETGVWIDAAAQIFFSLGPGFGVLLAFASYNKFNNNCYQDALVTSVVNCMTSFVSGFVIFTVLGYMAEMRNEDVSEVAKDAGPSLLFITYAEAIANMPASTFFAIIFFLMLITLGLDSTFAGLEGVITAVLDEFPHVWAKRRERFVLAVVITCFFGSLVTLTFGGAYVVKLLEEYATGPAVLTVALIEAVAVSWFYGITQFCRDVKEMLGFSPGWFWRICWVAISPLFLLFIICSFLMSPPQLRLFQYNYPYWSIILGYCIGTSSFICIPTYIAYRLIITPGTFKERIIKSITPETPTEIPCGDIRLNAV
Method: SERT inhibition can be measured using a Neruotransmitter Transportation Fluorescence assay. Briefly, stable 5HTT cells were prepared in a 384 microwell plate. Compounds were prepared by in assay buffer (20 mM HEPES, 0.1% BSA). The compounds were added to the plated cells and incubated for 30 minutes at 37° C. 25 μL of dye solution (Molecular Devices Neurotransmitter Transporter Uptake Assay Kit) is added per well and incubated for 30 minutes at 37° C. The plates are then read on a plate reader.

[1] = pharmacokinetics described for (−) mesembrine; species not given; cited from earlier work

| Compound | IC50 ratio to (−) mesembrine (SERT) | IC50 (SERT) | half-life in plasma [1] |
| --- | --- | --- | --- |
| CN1CC[C@]2(c3ccc4c(c3)OC(F)(F)O4)CCC(=O)C[C@H]12 (single isomer, unassigned) [Compound 232] | <5 | < 50 nM |  |
| CN1CC[C@@]2(c3ccc4c(c3)OC(F)(F)O4)CCC(=O)C[C@@H]12 (single isomer, unassigned) [Compound 233] | ≥100 | 500 to 1500 nM |  |
| COc1ccc([C@@]23CCC(=O)C[C@@H]2N(C)CC3)cc1OC [Mesembrine] |  |  | less than 2 hours |
